Measurements reported in patent US4304903A, “D-Erythro-2,3-dihydroxy-1-(1-phenyl-1H-pyrazolo(3,4-b)quinoxalin-3-y l)-propyl-4-O-α-D-glucopyranosyl-alpha-D-glucopyranoside poly(H-sulfate)salts” (American Cyanamid Company, priority 1980, dated 1981).
Where a name gives a salt, the structure may show the parent alone. Read-outs that look alike come from different tables or passages of the source.

Key:
[1] = system: serum complement activity; assay: Guinea Pig Intraperitoneal Test (GPIP); assay type: in vivo; conditions: Cavia porcellus, ip, 200 mg./kg. i.p.
Excerpt: An active inhibitor protects C2 from C1 and C4; (ii) Test Code 035 (C3-C9 inhibitor)--This test determines the ability of the late components of human complement (C3-C9) to lyse EAC 142 in the presence of appropriate dilutions of the test compound. An active inhibitor protects EAC 142 from lysis by human C3-C9; (iii) Test Code 036 (C-Shunt inhibitor)--In this test human erythrocytes rendered fragile are lysed in autologous serum via the shunt pathway activated by cobra venom factor in the presence of appropriate dilutions of the test compound. Inhibition of the shunt pathway results in failure of lysis; (iv) Forssman Vasculitis Test--Here, the well known complement dependent lesion, Forssman vasculitis, is produced in guinea pigs by intradermal injection of rabbit anti-Forssman antiserum. The lesion is measured in terms of diameter, edema and hemorrhage and the extent to which a combined index of these is inhibited by prior intraperitoneal injection of the test compound at 200 mg./kg. is then reported, unless otherwise stated; (v) Forssman Shock Test--Lethal shock is produced in guinea pigs by an i.v. injection of anti-Forssman antiserum and the harmonic mean death time of treated guinea pigs is compared with that of simultaneous controls; (vi) Complement Level Reduction Test--In this test, the above dosed guinea pigs, or others, are bled for serum and the complement level is determind in undiluted serum by the capillary tube method of U.S. Pat. No. 3,876,376 and compared to undosed control guinea pigs; (vii) Cap 50 Test--Here, appropriate amounts of the test compound are added to a pool of quinea Pig serum in vitro, after which the undiluted serum capillary tube assay referred to above is run. The concentration of compound inhibiting 50% is reported; (viii) Guinea Pig Intraperitoneal Test (GPIP)--Guinea pigs weighing about 300 g. are dosed intraperitoneally (i.p.) with 200 mg./kg. of the test compound dissolved in saline and adjusted to pH 7-8. […] Percent inhibition is calculated by comparison with simultaneous controls. […]

activated human C1 = molecular target: T1, activated human C1 (Homo sapiens, UniProt P09871); assay: Test Code 026 (C1 inhibitor); assay type: biochemical; conditions: serial twofold dilution assay; higher well number indicates higher activity
T1 sequence (P09871 16-437 limits assumed): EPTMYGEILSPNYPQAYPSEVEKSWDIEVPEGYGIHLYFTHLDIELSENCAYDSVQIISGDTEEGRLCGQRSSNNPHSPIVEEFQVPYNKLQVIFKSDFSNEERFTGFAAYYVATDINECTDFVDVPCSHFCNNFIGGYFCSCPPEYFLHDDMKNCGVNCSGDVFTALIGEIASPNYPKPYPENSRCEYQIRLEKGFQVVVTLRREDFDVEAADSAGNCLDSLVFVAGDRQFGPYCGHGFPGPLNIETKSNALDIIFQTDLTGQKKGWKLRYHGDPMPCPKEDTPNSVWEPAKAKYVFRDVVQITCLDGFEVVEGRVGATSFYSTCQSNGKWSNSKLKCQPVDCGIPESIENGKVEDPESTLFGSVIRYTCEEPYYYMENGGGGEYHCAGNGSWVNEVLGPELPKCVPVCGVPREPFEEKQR
T1 sequence (P09871 438-688 limits assumed): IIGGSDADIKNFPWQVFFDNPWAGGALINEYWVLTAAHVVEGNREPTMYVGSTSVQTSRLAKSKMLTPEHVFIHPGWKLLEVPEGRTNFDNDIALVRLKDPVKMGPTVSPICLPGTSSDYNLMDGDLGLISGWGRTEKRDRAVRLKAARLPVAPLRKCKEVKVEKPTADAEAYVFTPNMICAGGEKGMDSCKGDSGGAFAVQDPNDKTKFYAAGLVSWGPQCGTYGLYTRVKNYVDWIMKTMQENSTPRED
Excerpt: (§1) An active inhibitor protects C2 from C1 and C4; (ii) Test Code 035 (C3-C9 inhibitor)--This test determines the ability of the late components of human complement (C3-C9) to lyse EAC 142 in the presence of appropriate dilutions of the test compound. An active inhibitor protects EAC 142 from lysis by human C3-C9; (iii) Test Code 036 (C-Shunt inhibitor)--In this test human erythrocytes rendered fragile are lysed in autologous serum via the shunt pathway activated by cobra venom factor in the presence of appropriate dilutions of the test compound. Inhibition of the shunt pathway results in failure of lysis; (iv) Forssman Vasculitis Test--Here, the well known complement dependent lesion, Forssman vasculitis, is produced in guinea pigs by intradermal injection of rabbit anti-Forssman antiserum. […] Percent inhibition is calculated by comparison with simultaneous controls. […]

[2] = system: late components of human complement (C3-C9); assay: Test Code 035 (C3-C9 inhibitor); assay type: biochemical; set-up: key: N = Inactive; conditions: serial twofold dilution assay; higher well number indicates higher activity; lysis of EAC 142
Excerpt: as §1

026 In Vitro Activity (activity in wells) (activated human C1)	SMILES	inhibition at 200 mg/kg ([1]; 0.5 h, serum 30 minutes after injection, read-out: In Vivo Activity (Guinea Pig) (Intraperitoneal) % Inhibition, 30 minutes)	inhibition at 200 mg/kg ([1]; 1 h, serum 60 minutes after injection, read-out: In Vivo Activity (Guinea Pig) (Intraperitoneal) % Inhibition, 60 minutes)	inhibition at 200 mg/kg ([1]; 2 h, serum 120 minutes after injection, read-out: In Vivo Activity (Guinea Pig) (Intraperitoneal) % Inhibition, 120 minutes)	035 In Vitro Activity (activity in wells) [2]
–	O=S(=O)(O)OC[C@H]1O[C@H](O[C@@H](c2nn(-c3ccccc3)c3nc4ccccc4nc23)[C@@H](COS(=O)(=O)O)OS(=O)(=O)O)[C@H](OS(=O)(=O)O)[C@@H](OS(=O)(=O)O)[C@@H]1O[C@H]1O[C@H](COS(=O)(=O)O)[C@@H](OS(=O)(=O)O)[C@H](OS(=O)(=O)O)[C@H]1OS(=O)(=O)O [D-Erythro-2,3-dihydroxy-1-(1-phenyl-1H-pyrazolo[3,4-b]quinoxalin-3-yl)propyl-4-O-α-D-glucopyranosyl-α-D-glucopyranoside, nonakis(H-sulfate), nonasodium salt]	-58%	-56%	-76%	–
+5 wells	Cc1cc2nc3c([C@H](O[C@H]4O[C@H](COS(=O)(=O)O)[C@@H](O[C@H]5O[C@H](COS(=O)(=O)O)[C@@H](OS(=O)(=O)O)[C@H](OS(=O)(=O)O)[C@H]5OS(=O)(=O)O)[C@H](OS(=O)(=O)O)[C@H]4OS(=O)(=O)O)[C@@H](COS(=O)(=O)O)OS(=O)(=O)O)nn(-c4ccccc4)c3nc2cc1C [D-Erythro-2,3-dihydroxy-1-(6,7-dimethyl-1-phenyl-1H-pyrazolo[3,4-b]quinoxalin-3-yl)propyl-4-O-α-D-glucopyranosyl-α-D-glucopyranoside, nonakis(H-sulfate), nonasalt with trimethylamine]	–	–	–	+1 wells
–	O=S(=O)(O)OC[C@H]1O[C@H](O[C@@H](c2nn(-c3ccccc3)c3nc4ccccc4nc23)[C@@H](COS(=O)(=O)O)OS(=O)(=O)O)[C@H](OS(=O)(=O)O)[C@@H](OS(=O)(=O)O)[C@@H]1O[C@H]1O[C@H](COS(=O)(=O)O)[C@@H](OS(=O)(=O)O)[C@H](OS(=O)(=O)O)[C@H]1OS(=O)(=O)O [D-Erythro-2,3-dihydroxy-1-(1-phenyl-1H-pyrazolo[3,4-b]quinox] [D-Erythro-2,3-dihydroxy-1-(1-phenyl-1H-pyrazolo[3,4-b]quinoxalin-3-yl)propyl-4-O-α-D-glucopyranosyl-α-D-glucopyranoside, nonakis(H-sulfate), nonasalt with trimethylamine]	–	–	–	N
